{"source": "the supplement of paper PMC10307832", "assay_in_all_cases": "relative viability (nuclei count vs DMSO), 5 days (fraction); higher = more cells survive", "key": {"NCI-H727": {"test_system": "NCI-H727", "how_it_was_run": "(§1)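 Relative viability divides the nuclei count in treated wells by that in vehicle wells. Lung cancer cell lines were seeded in 1536-well plates, dosed by pin tool the next day, and fixed and stained after 5 days in one step with final 0.05% Triton X-100, 1% formaldehyde and 1 ug/ml Hoechst. Dosing was a single drug or a fixed anchor-drug dose plus five library-drug doses (not always all listed) in √10 steps, and values are medians of duplicate plates imaged at 4×.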"}, "LOU-NH91": {"test_system": "LOU-NH91", "how_it_was_run": "as §1"}, "NCI-H23": {"test_system": "NCI-H23", "how_it_was_run": "as §1"}, "NCI-H650": {"test_system": "NCI-H650", "how_it_was_run": "as §1"}, "NCI-H2405": {"test_system": "NCI-H2405", "how_it_was_run": "as §1"}, "ChaGo-K-1": {"test_system": "ChaGo-K-1", "how_it_was_run": "as §1"}, "201T": {"test_system": "201T", "how_it_was_run": "as §1"}, "EKVX": {"test_system": "EKVX", "how_it_was_run": "as §1"}, "NCI-H2228": {"test_system": "NCI-H2228", "how_it_was_run": "as §1"}, "NCI-H2126": {"test_system": "NCI-H2126", "how_it_was_run": "as §1"}, "SW 900": {"test_system": "SW 900", "how_it_was_run": "as §1"}, "NCI-H3122": {"test_system": "NCI-H3122", "how_it_was_run": "as §1"}, "H3255": {"test_system": "H3255", "how_it_was_run": "as §1"}, "COR-L 105": {"test_system": "COR-L 105", "how_it_was_run": "as §1"}, "NCI-H661": {"test_system": "NCI-H661", "how_it_was_run": "as §1"}, "SK-LU-1": {"test_system": "SK-LU-1", "how_it_was_run": "as §1"}, "HARA": {"test_system": "HARA", "how_it_was_run": "as §1"}, "NCI-H1975": {"test_system": "NCI-H1975", "how_it_was_run": "as §1"}, "PC-3 [JPC-3]": {"test_system": "PC-3 [JPC-3]", "how_it_was_run": "as §1"}, "HCC-827": {"test_system": "HCC-827", "how_it_was_run": "as §1"}, "LCLC-103H": {"test_system": "LCLC-103H", "how_it_was_run": "as §1"}, "NCI-H596": {"test_system": "NCI-H596", "how_it_was_run": "as §1"}, "HOP-62": {"test_system": "HOP-62", "how_it_was_run": "as §1"}}}
{"smiles": "CN1CCN(CCOc2cc(OC3CCOCC3)c3c(Nc4c(Cl)ccc5c4OCO5)ncnc3c2)CC1", "note": "[Saracatinib] + N=C(N)NC(=N)NCCc1ccccc1 [Phenformin] (partner 250 µM)", "values": [{"measurement": "relative viability", "setting": "NCI-H727; first compound 0.02 µM", "result": 0.535}, {"measurement": "relative viability", "setting": "NCI-H727; first compound 0.2 µM", "result": 0.238}, {"measurement": "relative viability", "setting": "NCI-H727; first compound 0.6325 µM", "result": 0.465}, {"measurement": "relative viability", "setting": "NCI-H727; first compound 2 µM", "result": 0.316}, {"measurement": "relative viability", "setting": "LOU-NH91; first compound 0.02 µM", "result": 0.648}, {"measurement": "relative viability", "setting": "LOU-NH91; first compound 0.2 µM", "result": 0.47}, {"measurement": "relative viability", "setting": "LOU-NH91; first compound 0.6325 µM", "result": 0.553}, {"measurement": "relative viability", "setting": "LOU-NH91; first compound 2 µM", "result": 0.403}, {"measurement": "relative viability", "setting": "NCI-H23; first compound 0.02 µM", "result": 0.807}, {"measurement": "relative viability", "setting": "NCI-H23; first compound 0.2 µM", "result": 0.631}, {"measurement": "relative viability", "setting": "NCI-H23; first compound 0.6325 µM", "result": 0.917}, {"measurement": "relative viability", "setting": "NCI-H23; first compound 2 µM", "result": 0.739}, {"measurement": "relative viability", "setting": "NCI-H650; first compound 0.02 µM", "result": 0.465}, {"measurement": "relative viability", "setting": "NCI-H650; first compound 0.2 µM", "result": 0.429}, {"measurement": "relative viability", "setting": "NCI-H650; first compound 0.6325 µM", "result": 0.495}, {"measurement": "relative viability", "setting": "NCI-H650; first compound 2 µM", "result": 0.461}, {"measurement": "relative viability", "setting": "NCI-H2405; first compound 0.02 µM", "result": 0.406}, {"measurement": "relative viability", "setting": "NCI-H2405; first compound 0.2 µM", "result": 0.328}, {"measurement": "relative viability", "setting": "NCI-H2405; first compound 0.6325 µM", "result": 0.304}, {"measurement": "relative viability", "setting": "NCI-H2405; first compound 2 µM", "result": 0.185}, {"measurement": "relative viability", "setting": "ChaGo-K-1; first compound 0.02 µM", "result": 0.564}, {"measurement": "relative viability", "setting": "ChaGo-K-1; first compound 0.2 µM", "result": 0.314}, {"measurement": "relative viability", "setting": "ChaGo-K-1; first compound 0.6325 µM", "result": 0.447}, {"measurement": "relative viability", "setting": "ChaGo-K-1; first compound 2 µM", "result": 0.381}, {"measurement": "relative viability", "setting": "201T; first compound 0.02 µM", "result": 0.391}, {"measurement": "relative viability", "setting": "201T; first compound 0.2 µM", "result": 0.415}, {"measurement": "relative viability", "setting": "201T; first compound 0.6325 µM", "result": 0.422}, {"measurement": "relative viability", "setting": "201T; first compound 2 µM", "result": 0.369}, {"measurement": "relative viability", "setting": "EKVX; first compound 0.02 µM", "result": 0.26}, {"measurement": "relative viability", "setting": "EKVX; first compound 0.6325 µM", "result": 0.211}, {"measurement": "relative viability", "setting": "EKVX; first compound 2 µM", "result": 0.189}, {"measurement": "relative viability", "setting": "NCI-H2228; first compound 0.02 µM", "result": 0.345}, {"measurement": "relative viability", "setting": "NCI-H2228; first compound 0.2 µM", "result": 0.327}, {"measurement": "relative viability", "setting": "NCI-H2228; first compound 0.6325 µM", "result": 0.346}, {"measurement": "relative viability", "setting": "NCI-H2228; first compound 2 µM", "result": 0.194}, {"measurement": "relative viability", "setting": "NCI-H2126; first compound 0.02 µM", "result": 0.537}, {"measurement": "relative viability", "setting": "NCI-H2126; first compound 0.2 µM", "result": 0.522}, {"measurement": "relative viability", "setting": "NCI-H2126; first compound 0.6325 µM", "result": 0.524}, {"measurement": "relative viability", "setting": "NCI-H2126; first compound 2 µM", "result": 0.473}, {"measurement": "relative viability", "setting": "SW 900; first compound 0.02 µM", "result": 0.756}, {"measurement": "relative viability", "setting": "SW 900; first compound 0.2 µM", "result": 0.36}, {"measurement": "relative viability", "setting": "SW 900; first compound 0.6325 µM", "result": 0.493}, {"measurement": "relative viability", "setting": "SW 900; first compound 2 µM", "result": 0.47}, {"measurement": "relative viability", "setting": "NCI-H3122; first compound 0.02 µM", "result": 0.385}, {"measurement": "relative viability", "setting": "NCI-H3122; first compound 0.2 µM", "result": 0.248}, {"measurement": "relative viability", "setting": "NCI-H3122; first compound 0.6325 µM", "result": 0.301}, {"measurement": "relative viability", "setting": "NCI-H3122; first compound 2 µM", "result": 0.285}, {"measurement": "relative viability", "setting": "H3255; first compound 0.02 µM", "result": 0.354}, {"measurement": "relative viability", "setting": "H3255; first compound 0.2 µM", "result": 0.33}, {"measurement": "relative viability", "setting": "H3255; first compound 0.6325 µM", "result": 0.254}, {"measurement": "relative viability", "setting": "H3255; first compound 2 µM", "result": 0.251}, {"measurement": "relative viability", "setting": "COR-L 105; first compound 0.02 µM", "result": 0.586}, {"measurement": "relative viability", "setting": "COR-L 105; first compound 0.2 µM", "result": 0.532}, {"measurement": "relative viability", "setting": "COR-L 105; first compound 0.6325 µM", "result": 0.438}, {"measurement": "relative viability", "setting": "COR-L 105; first compound 2 µM", "result": 0.256}, {"measurement": "relative viability", "setting": "NCI-H661; first compound 0.02 µM", "result": 0.282}, {"measurement": "relative viability", "setting": "NCI-H661; first compound 0.2 µM", "result": 0.271}, {"measurement": "relative viability", "setting": "NCI-H661; first compound 0.6325 µM", "result": 0.233}, {"measurement": "relative viability", "setting": "NCI-H661; first compound 2 µM", "result": 0.236}, {"measurement": "relative viability", "setting": "SK-LU-1; first compound 0.02 µM", "result": 0.474}, {"measurement": "relative viability", "setting": "SK-LU-1; first compound 0.2 µM", "result": 0.351}, {"measurement": "relative viability", "setting": "SK-LU-1; first compound 0.6325 µM", "result": 0.25}, {"measurement": "relative viability", "setting": "SK-LU-1; first compound 2 µM", "result": 0.209}, {"measurement": "relative viability", "setting": "HARA; first compound 0.02 µM", "result": 0.54}, {"measurement": "relative viability", "setting": "HARA; first compound 0.2 µM", "result": 0.279}, {"measurement": "relative viability", "setting": "HARA; first compound 0.6325 µM", "result": 0.496}, {"measurement": "relative viability", "setting": "HARA; first compound 2 µM", "result": 0.24}, {"measurement": "relative viability", "setting": "NCI-H1975; first compound 0.02 µM", "result": 0.422}, {"measurement": "relative viability", "setting": "NCI-H1975; first compound 0.2 µM", "result": 0.348}, {"measurement": "relative viability", "setting": "NCI-H1975; first compound 0.6325 µM", "result": 0.387}, {"measurement": "relative viability", "setting": "NCI-H1975; first compound 2 µM", "result": 0.32}, {"measurement": "relative viability", "setting": "PC-3 [JPC-3]; first compound 0.02 µM", "result": 0.49}, {"measurement": "relative viability", "setting": "PC-3 [JPC-3]; first compound 0.2 µM", "result": 0.421}, {"measurement": "relative viability", "setting": "PC-3 [JPC-3]; first compound 0.6325 µM", "result": 0.421}, {"measurement": "relative viability", "setting": "PC-3 [JPC-3]; first compound 2 µM", "result": 0.339}, {"measurement": "relative viability", "setting": "HCC-827; first compound 0.02 µM", "result": 0.4}, {"measurement": "relative viability", "setting": "HCC-827; first compound 0.2 µM", "result": 0.221}, {"measurement": "relative viability", "setting": "HCC-827; first compound 0.6325 µM", "result": 0.134}, {"measurement": "relative viability", "setting": "HCC-827; first compound 2 µM", "result": 0.144}, {"measurement": "relative viability", "setting": "LCLC-103H; first compound 0.02 µM", "result": 0.337}, {"measurement": "relative viability", "setting": "LCLC-103H; first compound 0.2 µM", "result": 0.354}, {"measurement": "relative viability", "setting": "LCLC-103H; first compound 0.6325 µM", "result": 0.37}, {"measurement": "relative viability", "setting": "LCLC-103H; first compound 2 µM", "result": 0.314}, {"measurement": "relative viability", "setting": "NCI-H596; first compound 0.02 µM", "result": 0.845}, {"measurement": "relative viability", "setting": "NCI-H596; first compound 0.2 µM", "result": 0.625}, {"measurement": "relative viability", "setting": "NCI-H596; first compound 0.6325 µM", "result": 0.689}, {"measurement": "relative viability", "setting": "NCI-H596; first compound 2 µM", "result": 0.67}, {"measurement": "relative viability", "setting": "HOP-62; first compound 0.02 µM", "result": 0.661}, {"measurement": "relative viability", "setting": "HOP-62; first compound 0.2 µM", "result": 0.629}, {"measurement": "relative viability", "setting": "HOP-62; first compound 0.6325 µM", "result": 0.593}, {"measurement": "relative viability", "setting": "HOP-62; first compound 2 µM", "result": 0.623}]}
